Values of other authors as cited in US9629386B2, “Nutrition composition” (AJINOMOTO CO., INC., priority 2008, dated 2017).

Test system: CRP and nutrition condition
Conditions: 1.2 g to 11 dialysis patients for 12 weeks

## ω-3 fatty acid
  CRP: did not decrease CRP
  nutrition condition: did not improve nutrition condition
